Several values for one entry are separate records, joined by “and”; a condition that tells them apart may be missing. Equal entries are not always repeated. Toxic doses and inconclusive results are not listed.
Tested on: L1210 leukemia ip in BDF1 mice, survival T/C
Assay: NCI In Vivo Anticancer Drug Screen. Data for tumor model L1210 Leukemia (intraperitoneal) in B6D2F1 (BDF1) mice
Settings: endpoint: mean survival time, higher = longer survival
Method in brief: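 Value reflects the ratio of survival in compound-treated mice to survival in vehicle-treated controls, with both groups carrying the same transplanted tumor.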

[1] = dose: 5.0 mg/kg/injection, schedule: Q01DX001 (ip), vehicle: saline
[2] = dose: 100.0 mg/kg/injection, schedule: Q01DX009 (ip), vehicle: saline with Tween-80
[3] = dose: 200.0 mg/kg/injection, schedule: Q01DX009 (ip), vehicle: saline with Tween-80
[4] = dose: 50.0 mg/kg/injection, schedule: Q01DX009 (ip), vehicle: saline with Tween-80

Nc1nc(F)nc2c1ncn2C1OC(CO)C(O)C1O (stereo not drawn)
T/C (dose: 0.75 mg/kg/injection, schedule: Q01DX Z (ip), vehicle: saline): 106 % of control | T/C (dose: 1.0 mg/kg/injection, schedule: Q01DX015 (ip), vehicle: saline): 104 % of control | T/C (dose: 1.5 mg/kg/injection, schedule: Q01DX Z (ip), vehicle: saline): 112 % of control | T/C (dose: 1.6 mg/kg/injection, schedule: Q01DX015 (ip), vehicle: saline): 98 % of control | T/C (dose: 2.4 mg/kg/injection, schedule: Q01DX015 (ip), vehicle: saline): 96 % of control | T/C (dose: 3.0 mg/kg/injection, schedule: Q01DX Z (ip), vehicle: saline): 104 % of control | T/C (dose: 3.6 mg/kg/injection, schedule: Q01DX015 (ip), vehicle: saline): 96 % of control | T/C (dose: 5.4 mg/kg/injection, schedule: Q01DX015 (ip), vehicle: saline): 87 % of control | T/C (dose: 6.0 mg/kg/injection, schedule: Q01DX Z (ip), vehicle: saline): 113 % of control | T/C (dose: 65.0 mg/kg/injection, schedule: Q03HX024 (ip), vehicle: saline with Tween-80): 205 % of control | T/C (dose: 65.0 mg/kg/injection, schedule: Q06HX012 (ip), vehicle: saline with Tween-80): 160 % of control | T/C (dose: 80.0 mg/kg/injection, schedule: Q03HX024 (ip), vehicle: saline with Tween-80): 291 % of control | T/C (dose: 80.0 mg/kg/injection, schedule: Q06HX012 (ip), vehicle: saline with Tween-80): 177 % of control | T/C (dose: 90.0 mg/kg/injection, schedule: Q03HX024 (ip), vehicle: saline with Tween-80): 276 % of control | T/C (dose: 100.0 mg/kg/injection, schedule: Q01DX001 (ip), vehicle: saline): 105 % of control | T/C (dose: 100.0 mg/kg/injection, schedule: Q03HX024 (ip), vehicle: saline with Tween-80): 301 % of control and 357 % of control (2×) | T/C (dose: 100.0 mg/kg/injection, schedule: Q03HX024 (oral), vehicle: saline with Tween-80): 160 % of control | T/C (dose: 110.0 mg/kg/injection, schedule: Q03HX024 (ip), vehicle: saline with Tween-80): 157 % of control | T/C (dose: 125.0 mg/kg/injection, schedule: Q03HX024 (ip), vehicle: saline with Tween-80): 100 % of control | T/C (dose: 125.0 mg/kg/injection, schedule: Q06HX012 (ip), vehicle: saline with Tween-80): 163 % of control | T/C (dose: 150.0 mg/kg/injection, schedule: Q03HX024 (ip), vehicle: saline with Tween-80): 83 % of control | T/C (dose: 150.0 mg/kg/injection, schedule: Q03HX024 (oral), vehicle: saline with Tween-80): 166 % of control | T/C (dose: 150.0 mg/kg/injection, schedule: Q06HX012 (ip), vehicle: saline with Tween-80): 181 % of control and 326 % of control | T/C (dose: 200.0 mg/kg/injection, schedule: Q01DX001 (ip), vehicle: saline): 107 % of control | T/C (dose: 200.0 mg/kg/injection, schedule: Q06HX012 (ip), vehicle: saline with Tween-80): 219 % of control | T/C (dose: 250.0 mg/kg/injection, schedule: Q06HX012 (ip), vehicle: saline with Tween-80): 122 % of control | T/C (dose: 300.0 mg/kg/injection, schedule: Q01DX009 (ip), vehicle: saline with Tween-80): 86 % of control | T/C (dose: 300.0 mg/kg/injection, schedule: Q12HX006 (ip), vehicle: saline with Tween-80): 204 % of control and 225 % of control | T/C (dose: 350.0 mg/kg/injection, schedule: Q12HX006 (ip), vehicle: saline with Tween-80): 205 % of control | T/C (dose: 400.0 mg/kg/injection, schedule: Q01DX001 (ip), vehicle: saline): 122 % of control | T/C (dose: 400.0 mg/kg/injection, schedule: Q12HX006 (ip), vehicle: saline with Tween-80): 207 % of control and 288 % of control | T/C (dose: 450.0 mg/kg/injection, schedule: Q12HX006 (ip), vehicle: saline with Tween-80): 228 % of control | T/C (dose: 600.0 mg/kg/injection, schedule: Q04DX003 (ip), vehicle: saline with Tween-80): 186 % of control | T/C (dose: 750.0 mg/kg/injection, schedule: Q12HX006 (ip), vehicle: saline with Tween-80): 106 % of control | T/C (dose: 800.0 mg/kg/injection, schedule: Q04DX003 (ip), vehicle: saline with Tween-80): 200 % of control | T/C (dose: 1000.0 mg/kg/injection, schedule: Q04DX003 (ip), vehicle: saline with Tween-80): 205 % of control

C[N+]1(C)C2CC(O)CC1C1OC12 (stereo not drawn)
T/C (dose: 1.2 mg/kg/injection, schedule: Q01DX001 (ip), vehicle: saline): 95 % of control | T/C (dose: 2.5 mg/kg/injection, schedule: Q01DX001 (ip), vehicle: saline): 97 % of control | T/C [1]: 100 % of control

Cc1cccc[c]1[Sb](=[O])([OH])[OH]
T/C [1]: 94 % of control | T/C (dose: 10.0 mg/kg/injection, schedule: Q01DX001 (ip), vehicle: saline): 97 % of control | T/C (dose: 20.0 mg/kg/injection, schedule: Q01DX001 (ip), vehicle: saline): 97 % of control | T/C (dose: 40.0 mg/kg/injection, schedule: Q01DX001 (ip), vehicle: saline): 103 % of control | T/C (dose: 80.0 mg/kg/injection, schedule: Q01DX001 (ip), vehicle: saline): 105 % of control

Cc1ccc(NS(=O)(=O)c2ccccc2)c(C)c1
T/C (dose: 100.0 mg/kg/injection, schedule: Q01DX009 (ip), vehicle: Klucel (hydroxypropylcellulose) (HPC)): 99 % of control | T/C (dose: 100.0 mg/kg/injection, schedule: Q04DX003 (ip), vehicle: Klucel (hydroxypropylcellulose) (HPC)): 104 % of control | T/C (dose: 200.0 mg/kg/injection, schedule: Q01DX009 (ip), vehicle: Klucel (hydroxypropylcellulose) (HPC)): 99 % of control | T/C (dose: 200.0 mg/kg/injection, schedule: Q04DX003 (ip), vehicle: Klucel (hydroxypropylcellulose) (HPC)): 95 % of control | T/C (dose: 400.0 mg/kg/injection, schedule: Q01DX009 (ip), vehicle: Klucel (hydroxypropylcellulose) (HPC)): 94 % of control | T/C (dose: 400.0 mg/kg/injection, schedule: Q04DX003 (ip), vehicle: Klucel (hydroxypropylcellulose) (HPC)): 98 % of control

COc1cc([N+](=O)[O-])c(C)cc1NCc1ccc(OC)c(OC)c1
T/C (dose: 50.0 mg/kg/injection, schedule: Q01DX009 (ip), vehicle: saline): 96 % of control | T/C (dose: 100.0 mg/kg/injection, schedule: Q01DX009 (ip), vehicle: saline): 94 % of control | T/C (dose: 100.0 mg/kg/injection, schedule: Q04DX003 (ip), vehicle: saline): 97 % of control | T/C (dose: 200.0 mg/kg/injection, schedule: Q01DX009 (ip), vehicle: saline): 91 % of control | T/C (dose: 200.0 mg/kg/injection, schedule: Q04DX003 (ip), vehicle: saline): 98 % of control | T/C (dose: 400.0 mg/kg/injection, schedule: Q01DX009 (ip), vehicle: saline): 94 % of control | T/C (dose: 400.0 mg/kg/injection, schedule: Q04DX003 (ip), vehicle: saline): 89 % of control

COc1ccc2[nH]c3cc(Cl)ccc3c(=O)c2c1
T/C [2]: 91 % of control | T/C [3]: 88 % of control | T/C (dose: 400.0 mg/kg/injection, schedule: Q01DX009 (ip), vehicle: saline with Tween-80): 86 % of control

Cc1cc(OCC(=O)O)c(Cl)cc1Cl
T/C [4]: 92 % of control | T/C [2]: 99 % of control

C1=C2CC3(CCC2C(OCc2ccccc2)CC1)OCCO3 (stereo not drawn)
T/C [4]: 100 % of control | T/C [2]: 92 % of control | T/C [3]: 94 % of control

O=[N+]([O-])c1ccc(N/N=C(\c2ccccc2)c2ccc(O)cc2O)c([N+](=O)[O-])c1
T/C (dose: 100.0 mg/kg/injection, schedule: Q01DX001 (ip), vehicle: other): 91 % of control | T/C (dose: 100.0 mg/kg/injection, schedule: Q04DX003 (ip), vehicle: other): 95 % of control | T/C (dose: 200.0 mg/kg/injection, schedule: Q01DX001 (ip), vehicle: other): 91 % of control | T/C (dose: 200.0 mg/kg/injection, schedule: Q04DX003 (ip), vehicle: other): 96 % of control | T/C (dose: 400.0 mg/kg/injection, schedule: Q01DX001 (ip), vehicle: other): 95 % of control | T/C (dose: 400.0 mg/kg/injection, schedule: Q04DX003 (ip), vehicle: other): 96 % of control

O=c1[nH]cnc2c1ncn2C1SC(CO)C(O)C1O (stereo not drawn)
T/C (dose: 100.0 mg/kg/injection, schedule: Q01DX005 (ip), vehicle: saline): 103 % of control | T/C (dose: 200.0 mg/kg/injection, schedule: Q01DX005 (ip), vehicle: saline): 106 % of control

Fc1ccc(Cl)c2cccnc12
T/C (dose: 75.0 mg/kg/injection, schedule: Q01DX001 (ip), vehicle: saline): 105 % of control | T/C (dose: 150.0 mg/kg/injection, schedule: Q01DX001 (ip), vehicle: saline): 102 % of control

NC(=S)N/N=C/c1cc(-c2cccc(N)c2)ccn1
T/C (dose: 6.25 mg/kg/injection, schedule: Q01DX009 (ip), vehicle: saline with Tween-80): 112 % of control | T/C (dose: 12.5 mg/kg/injection, schedule: Q01DX009 (ip), vehicle: saline with Tween-80): 114 % of control | T/C (dose: 25.0 mg/kg/injection, schedule: Q01DX009 (ip), vehicle: saline with Tween-80): 114 % of control | T/C [4]: 111 % of control | T/C [2]: 114 % of control

CC12CC(O)C(C=C1c1ccccc1)C2(C)C (stereo not drawn)
T/C (dose: 100.0 mg/kg/injection, schedule: Q04DX002 (ip), vehicle: other): 86 % of control | T/C (dose: 200.0 mg/kg/injection, schedule: Q04DX002 (ip), vehicle: other): 93 % of control | T/C (dose: 400.0 mg/kg/injection, schedule: Q04DX002 (ip), vehicle: other): 90 % of control
